Source: patent US6500405B1, “Use of certain amides as probes for detection of antitubulin activity and resistance monitoring” (Dow AgroSciences LLC, priority 1996, dated 2002)

Experiments:
tubulin = assay: Binding of S versus R enantiomers to tubulin; conditions: S enantiomer versus corresponding R enantiomer
[1] = system: tubulin in colon cancer cell line HCT-116; assay: Whole cell binding assay, tritiated S-enantiomer of compound 2 as probe, colon cancer cell line HCT-116; conditions: for Binding of radioligand (% control): HCT-116, 1 hour preincubation, 1 hour with radioligand; for Effect on binding of the radioligand (in words): HCT-116, tritiated S-enantiomer of compound 2
Description: Effect of antitubulin compounds on binding of the tritiated S-enantiomer of compound 2 to tubulin in a whole cell binding assay using the colon cancer cell line HCT-116 is shown by this example.
The colon cancer cell line HCT-116 (obtained from the American Type Culture Collection) was cultured in 75 cm^2 flasks containing McCoy's 5a Modified Medium with 10% heat-inactivated fetal bovine serum, 50 U/ml of penicillin G and 50 U/ml of streptomycin sulfate. A cell suspension was prepared by trypsinization of the culture, and adjusted to a density of 10^6 cells/ml by dilution into incomplete medium (medium lacking serum, penicillin G and streptomycin). Aliquots (150 μl) of cell suspension were added to wells of 96-well glass fiber filter plates (Millipore Multiscreen® plates, 1 μm glass fiber, Type B). Wells then received 30 μl of a solution of the test antitubulin compound in incomplete medium/DMSO mixture (8.5:1, v/v) or 30 μl of the incomplete medium/DMSO mixture alone (control). After mixing, the plates were incubated at 37° C. for 1 hour, then 25 μl of 0.8 μM tritium-labeled S-enantiomer of compound 2 was added to each well. After mixing, the plates were incubated at 37° C. for 1 hour, then binding of the radioligand to tubulin was stopped by adding 50 μl of 100 μM unlabeled compound 2. The fluid was removed from the plate by vacuum filtration through the glass fiber, then 100 μl of ice-cold 10% trichloroacetic acid was added to each well. The plates were incubated for 1 h at 4° C., then the fluid was removed by filtration. Ice-cold ethanol (250 μl) was added to each well, the plates incubated for 1 h at 4° C., then the ethanol was removed by filtration. Wells were washed 4 more times with 250 μl of ice-cold ethanol. After drying the plates at 37° C. for 20 min, the glass fiber filters were punched out of the wells into scintillation vials, 5 ml of scintillation fluid was added to each vial, and the samples were counted in a scintillation counter to determine the amount of bound radioactivity. The effects of different antitubulin compounds on binding of the radioligand are presented in Table 11 with the amounts of radioligand bound in the presence of each antitubulin compound expressed as a percentage of the amount of radioligand bound in the control.

isolated bovine tubulin = assay: Binding assay, tritiated compound 1 as probe, isolated bovine tubulin; conditions: 100 μM final concentration; 10 μM tubulin; 30 minutes preincubation, 120 minutes with tritiated compound 1 at 37° C.
Description: Assay mixtures contained 10 μM isolated tubulin in 1.0 M sodium glutamate, pH 6.6 containing 1 mM MgCl2, and 2.5 μDMSO (control) or 2.5 μl of test compound dissolved in DMSO in 0.5 ml polypropylene tubes. Mixtures were incubated at 37° C. for 30 minutes, then 2.5 μl of a 640 μM solution of tritium-labeled compound 1 in DMSO was added. After further incubation at 37° C. for 120 minutes, aliquots (80 μl) of the assay mixtures were applied to 2.3 cm diameter Whatman 3MM filter paper disks, which were dried for 15 seconds under warm air, immersed in 3 ml of ice-cold 10% trichloroacetic acid, and left overnight at 4° C. Disks were transferred to 5% trichloroacetic acid for 30 minutes, washed twice more in 5% trichloroacetic acid, washed for 30 minutes at 37° C. in ethanol/ether (1:1, v/v), then for 15 min at room temperature in ethanol/ether (1:1, v/v), and finally in two successive washes for 15 minutes each in ether at room temperature. The disks were dried, transferred to scintillation vials containing 10 ml of Hydrofluor™ and counted in a scintillation counter.

plant tubulin = conditions: cited from earlier work
brain tubulin = conditions: cited from earlier work

Binding of the S enantiomer to tubulin compared with the R enantiomer (tubulin)	melting point	Compound	Binding of radioligand (% control) ([1]; 0.1 μM)	Binding of radioligand (% control) ([1]; 1 μM)	Binding of radioligand (% control) ([1]; 10 μM)	Binding of radioligand (% control) ([1]; 100 μM)	Effect on binding of the radioligand (in words) [1]	Binding (% control) (isolated bovine tubulin)	Inhibition of plant tubulin polymerization (plant tubulin)	Inhibition of brain tubulin polymerization (brain tubulin)
bind more effectively to tubulin	140 to 141 °C	CCC(C)(NC(=O)c1cc(Cl)c(N)c(C=NOC)c1)C(=O)CCl (stereo not shown) [Compound 2, 4-amino-3-chloro-5-methoxyiminomethyl-N-(3-chloro-1-ethyl-1-methyl-2-oxopropyl)benzamide]	–	–	–	–	–	–	–	–
–	–	COC(=O)Nc1nc2ccc(C(=O)c3cccs3)cc2[nH]1 [Nocodazole, nocodazole]	102 % control	99 % control	74 % control	44 % control	reduced binding of the radioligand	31.3 % control	–	–
–	–	COc1cc([C@@H]2c3cc4c(cc3[C@H](O)[C@H]3COC(=O)[C@H]23)OCO4)cc(OC)c1OC [Podophyllotoxin, podophyllotoxin]	37 % control	0 % control	0 % control	0 % control	reduced binding of the radioligand	21.7 % control	–	–
–	–	CC[C@]1(O)C[C@@H]2CN(CCc3c([nH]c4ccccc34)[C@@](C(=O)OC)(c3cc4c(cc3OC)N(C)[C@H]3[C@@](O)(C(=O)OC)[C@H](OC(C)=O)[C@]5(CC)C=CCN6CC[C@]43[C@@H]65)C2)C1 [Vinblastine, vinblastine]	155 % control	218 % control	286 % control	323 % control	increased binding of the radioligand	90.7 % control	–	–
–	–	COP(=S)(NC(C)C)Oc1ccc(C)cc1[N+](=O)[O-] (stereo not shown) [amiprophosmethyl]	–	–	–	–	–	–	inhibit the polymerization of plant tubulin	not brain tubulin
